Test results from US9770407B2 (Lundbeck Pharmaceuticals LLC, priority 2005, dated 2017).
Read-outs that look alike come from different tables or passages of the source.

How the values were obtained:
[1] = Subset analysis of subjects on extended release CBZ twice daily: predicted IV vs observed oral steady-state Cmax, Cmin, AUC; assay type: in vivo, human; conditions: N=47; for AUC: human, plasma
Protocol: A subset analysis of the subject data (n=47), including only those subjects taking extended release (ER) formulations of CBZ twice daily (as indicated by the product label), was performed to compare predicted maximum and minimum exposures of CBZ at steady-state administered via IV infusion to those observed following oral administration. CBZ concentration-time profiles following IV administration will differ from oral administration to the greatest extent for subjects on ER products, since these products provide formulation dependent control of the concentration-time profile. Subjects on extended release formulations experience the least fluctuation in concentrations and will maintain higher relative trough concentrations compared to any non-extended release product. Thus, the analysis in this subset gives a conservative assessment of potential differences in peak and trough exposures following IV administration. This analysis included calculations of predicted Cmax, Cmin, and AUCss values of CBZ for subjects predicted to be at steady-state on IV therapy.

[2] = human, in vivo, po
Protocol: Indwelling catheters were placed into the arms of test subjects. A single 100 mg dose of stable-labeled (non-radioactive) CBZ (SL-CBZ) was then infused over 10 minutes. At the end of the infusion, the subject's usual morning dose of oral CBZ, less 100 mg, was administered. Blood pressure, heart rate and rhythm, and infusion site discomfort were monitored during and for an hour after the infusion. […] Unbound CBZ was measured following ultrafiltration. CBZ concentration-time data were analyzed using a non-compartmental approach with the pharmacokinetic software, WinNONLIN.
A validated LC-MS assay for SL-CBZ, CBZ and their respective epoxide metabolites was used. […] CBZ was assayed similar to that described by Osterloh and Bertilsson. […] After shaking and centrifugation, the organic layer was removed and evaporated under nitrogen gas to dryness. Each sample was then redissolved with the addition of 25 microliters of ethyl acetate. Plasma samples were measured for unbound and total CBZ, CBZ glucuronide and CBZ-E by LCMS. Unbound drug was separated from the bound fraction by ultrafiltration. The mobile phase consists of 50% 0.05 M ammonium acetate buffer, pH 4.7, 50% MeOH at a flow rate of 0.4 ml/min, on a reverse phase C-18 column.

[3] = Steady-state trough concentrations, oral observed vs IV predicted by the method of superposition; assay type: in vivo, human
Protocol: The most relevant factor in considering the dose adjustment for intravenously administered CBZ is for treatment centers to maintain plasma concentrations of CBZ above the therapeutic threshold. Following administration of 100 mg of IV CBZ, observed plasma concentrations followed a […] decay indicating a very fast distribution to tissues followed by a slower elimination of drug out of the body. Steady-state plasma concentrations of IV CBZ were predicted using the method of superposition. Plasma concentrations following a single dose of IV CBZ were scaled-up to steady-state conditions, assuming linear pharmacokinetics, using an accumulation ratio, a mean F of 0.7, and correcting for dose (see Equations 1 and 2). As a result, this calculation allows for a comparison of steady-state trough plasma concentrations following oral (Co and IV (C6 hr) administration of CBZ respectively assuming a dosing interval of once every six hours for the IV formulation.
[formula] Where Cpss(IV) is the plasma concentration (C) at steady state for IV administration; CpsD is the plasma concentration after a single dose; Int is the y-intercept resulting from linear regression of the elimination phase; λ is the terminal elimination rate constant; Dpo is the total oral daily dose; DIV is the single IV dose; F is the absolute bioavailability; T is the dosing interval; and t is the time of each observed concentration.

[4] = 5th Percentile, observed, ER products twice daily
[5] = 5th Percentile, predicted, IV every 6 hours
[6] = 95th Percentile, observed, ER products twice daily
[7] = 95th Percentile, predicted, IV every 6 hours
[8] = Maximum, observed, ER products twice daily
[9] = Maximum, predicted, IV every 6 hours
[10] = Median, observed, ER products twice daily
[11] = Median, predicted, IV every 6 hours
[12] = Minimum, observed, ER products twice daily
[13] = Minimum, predicted, IV every 6 hours

In the case of `NC(=O)N1c2ccccc2C=Cc2ccccc21` [Carbamazepine, 5H-dibenz[b,f]azepine-5-carboxamide], the “Oral Cmaxss” value [1, 4] is reported as 4980 ng/mL, the “Oral Cminss” value [1, 4] is reported as 4320 ng/mL and the “IV CmaxSS (mean F = 0.7)” value [1, 5] is reported as 4800 ng/mL. The “IV CminSS (mean F = 0.7)” value [1, 5] was 2480 ng/mL, the “Oral Cmaxss” value [1, 6] was 14600 ng/mL and the “Oral Cminss” value [1, 6] was 14550 ng/mL. The “IV CmaxSS (mean F = 0.7)” value [1, 7] was 24140 ng/mL, the “IV CminSS (mean F = 0.7)” value [1, 7] was 18640 ng/mL and the “Oral Cmaxss” value [1, 8] was 17100 ng/mL. For the same molecule, the “Oral Cminss” value [1, 8] was 16690 ng/mL, the “IV CmaxSS (mean F = 0.7)” value [1, 9] was 47000 ng/mL and the “IV CminSS (mean F = 0.7)” value [1, 9] was 41040 ng/mL. For the same molecule, the “IV CmaxSS (mean F = 0.7)” value ([1]; Maximum, predicted, IV every 6 hours, listed as CBZ) was 47000 ng/mL, the “Oral Cmaxss” value ([1]; Mean ± SD, observed, ER products (Carbatrol, Tegretol XR) twice daily, highest observed concentration, sparse sampling) was 9920 ± 2990 ng/mL and the “Oral Cminss” value ([1]; Mean ± SD, observed, ER products twice daily) was 9320 ± 2930 ng/mL. For the same molecule, the “IV CminSS (mean F = 0.7)” value ([1]; Mean ± SD, predicted, IV every 6 hours) was 8630 ± 6850 ng/mL, the “IV CmaxSS (mean F = 0.7)” value ([1]; Mean ± SD, predicted, scaled from 100 mg single IV dose over 10 minutes, every 6 hours) was 11750 ± 7900 ng/mL and the “IV CmaxSS (mean F = 0.7)” value ([1]; Mean ± SD, predicted, scaled from 100 mg single IV dose over 10 minutes, every 6 hours, listed as CBZ) was 11750 ng/mL. For the same molecule, the “Oral Cmaxss” value [1, 10] was 9810 ng/mL, the “Oral Cminss” value [1, 10] was 9440 ng/mL and the “IV CmaxSS (mean F = 0.7)” value [1, 11] was 9930 ng/mL. The “IV CminSS (mean F = 0.7)” value [1, 11] was 6500 ng/mL, the “Oral Cmaxss” value [1, 12] was 2890 ng/mL and the “Oral Cminss” value [1, 12] was 2890 ng/mL. For the same molecule, the “IV CmaxSS (mean F = 0.7)” value [1, 13] was 3170 ng/mL, the “IV CminSS (mean F = 0.7)” value [1, 13] was 1650 ng/mL and the AUC ([1]; iv, 5th Percentile, predicted, IV every 6 hours, read-out: IV AUCSS (mean F = 0.7)) was 43100 ng·h/mL. It also gave an AUC ([1]; iv, 95th Percentile, predicted, IV every 6 hours, read-out: IV AUCSS (mean F = 0.7)) of 257000 ng·h/mL, an AUC ([1]; iv, Maximum, predicted, IV every 6 hours, read-out: IV AUCSS (mean F = 0.7)) of 551000 ng·h/mL and an AUC ([1]; iv, Mean ± SD, predicted, IV every 6 hours, read-out: IV AUCSS (mean F = 0.7)) of 122000 ± 90900 ng·h/mL. The AUC ([1]; iv, Median, predicted, IV every 6 hours, read-out: IV AUCSS (mean F = 0.7)) was 93700 ng·h/mL, the AUC ([1]; iv, Minimum, predicted, IV every 6 hours, read-out: IV AUCSS (mean F = 0.7)) was 26900 ng·h/mL and the AUC ([1]; po, 5th Percentile, observed, ER products, 12 hour dosing interval, read-out: Oral AUCss) was 50100 ng·h/mL. It also gave an AUC ([1]; po, 95th Percentile, observed, ER products, 12 hour dosing interval, read-out: Oral AUCss) of 146000 ng·h/mL, an AUC ([1]; po, Maximum, observed, ER products, 12 hour dosing interval, read-out: Oral AUCss) of 168000 ng·h/mL and an AUC ([1]; po, Mean ± SD, observed, ER products, 12 hour dosing interval, read-out: Oral AUCss) of 96800 ± 28100 ng·h/mL. The AUC ([1]; po, Median, observed, ER products, 12 hour dosing interval, read-out: Oral AUCss) was 96000 ng·h/mL, the AUC ([1]; po, Minimum, observed, ER products, 12 hour dosing interval, read-out: Oral AUCss) was 28500 ng·h/mL and the “calculated mean F value” [2] was 75%. For the same molecule, the “median F value” [2] was 67%, the “statistical comparison of trough values following oral and IV administration” value ([3]; 6-hour time-point, α=0.10, p=0.1931) was “not statistically different” and the “statistical comparison of trough values following oral and IV administration” value ([3]; 12-hour time-point, post-dose) was “significantly different”. The “Difference Between the Means” value ([3]; Co (oral only) vs C6 hr (IV only), N=62) was 0.09456, the concentration at 6 h ([3]; human, plasma, 100 mg, predicted by superposition, IV every six hours, mean F=0.70, N=62, read-out: C6 hr (IV only), mean steady-state plasma concentration at the 6-hour time-point) was 8040 ng/mL and the Co (oral only), mean oral steady-state trough plasma concentration ([3]; observed, oral twice daily dosing, n=62 evaluable subjects) was 8.98 µg/mL.
